{
  "source": "patent US20240335464A1",
  "about": "“ADMINISTRATION OF STING AGONIST, CHECKPOINT INHIBITORS, AND RADIATION” (Takeda Pharmaceutical Company Limited, priority 2020, published 2024)",
  "system": "EMT6 mouse breast carcinoma syngeneic tumor",
  "assay": "Study 2: EMT6 mouse syngeneic tumor model, subcutaneous, anti-tumor efficacy",
  "assay_type": "in vivo, female BALB/c mice",
  "details": "for GRI (%) Day 21: vs vehicle; for Complete Regressions: n=10/group, 60-day study; for Combination Assessment / Synergy Score %: data through Day 21",
  "description": "Studies 1 and 2: EMT6 is a mouse breast carcinoma cell line. EMT6 mouse syngeneic tumor model was generated by subcutaneous (sc) inoculation with 0.2×10^6 EMT6 cells (cell suspension) in nine to ten week old female BALB/c mice (Vital River Laboratory Animal Technology Co., Ltd., Beijing, China) in the flank. When the mean tumor volume reached 60 mm^3 in Study 1 and 75 mm^3 in Study 2 the animals were randomized into one vehicle control and seven treatment groups (n=10/group). Mice were then dosed with vehicle (phosphate buffered saline (PBS)) or Compound No. 14 or 10 Gy Radiation or Compound No. 14 plus 10 Gy Radiation over an eight-day period. Tumor growth and body weight were measured three times per week during the treatment and post-treatment periods. Mice were humanely euthanized once they reached their humane endpoint or until study termination on day 72 (Study 1) or on day 60 (Study 2).\nStudies 1 and 2: A 0.1 mg/mL stock solution of Compound No. 14 was formulated in PBS and administered intravenously (IV) based on exact animal body weight on each day of treatment, using a dosing volume of 10 mL/kg body weight. Final doses received were 1.0 mg/kg. […] Compound No. 14 was administered on a Q3D schedule for 3 doses (Day 2, 5 and 8) in single agent treatment group and in combination treatment groups. Dose formulation of Compound No. 14 was prepared once and utilized for dosing on Days 2, 5 and 8.\nRadiation treatment for Studies 1 and 2 was performed using RadSource RS 2000 X-ray irradiator (Rad Source Technologies). Animals received 1.046 Gy/minute of radiation and approximately 9.5 min was needed to reach a 10 Gy dose delivery. Animals were anesthetized prior to placement in irradiation chamber using isoflurane and checked for reflexes. Radiation beam was focused on tumor with manual positioning. Radiation was administered via manual positioning in a single 10 Gy dose on either day 0, 2 or 4 in Study 1, and on either day 0, 1, 2, 3 or 4 in Study 2.\nTumors were measured three times weekly using vernier calipers. Tumor volumes were calculated using standard equation: V=W^2×L/2, where V=volume, W=width, and L=length for the tumor. When mean tumor volumes reached approximately 60 mm^3 for Study 1, 75 mm^3 for Study 2, and 110 mm^3 for Study 3, mice were randomized into eight groups (n=10/group) in Studies 1 and 2, and nine groups (n=8/group) in Study 3. These groups were then dosed with vehicle (PBS), Compound No. 14, Radiation, anti-mPD-1 or isotype control, or combinations of these agents as described in Tables 1a, 2a, and 3a. Tumor size and body weight were measured three times a week for the duration of each study. Mice were euthanized for Studies 1 and 2 when their tumor volumes reached greater than 10% of their body weight or when an individual tumor exceeded the humane end-point for size (>2 cm) or when an animal lost 20% of their body weight relative to the start of the study or lost 15% of their body weight in any 24 hr time frame. Mice were euthanized in Study 3 when tumor volume exceeded 2,000 mm^3 or an animal lost more than 20% of their body weight relative to the start of study.\nGrowth Rate Inhibition: The differences in the tumor growth trends over time between pairs of treatment groups were assessed by fitting each animal's data to a simple exponential growth model and comparing the mean growth rates of the two groups, as described in more detail below. The difference in the growth rates was summarized by the GRI, which is the reduction in growth rate experienced by the treatment group relative to that of the reference group, expressed as a fraction of the vehicle growth rate.\nμT and μC are the mean tumor growth rates for the treatment and reference groups, respectively. μV is the mean tumor growth rate for the vehicle group, which in most cases is the same as the reference group.\nA GRI greater than 100% is interpreted as tumor regression when the vehicle group is the same as the reference group. […]",
  "key": {"[1]": {"details": "Compound No. 14 1.0 mg/kg IV Q3D×3 + Radiation (10Gy) (Day 2)"}, "[2]": {"details": "Compound No. 14 1.0 mg/kg IV Q3D×3 + Radiation (10Gy) (Day 3)"}, "[3]": {"details": "Compound No. 14 1.0 mg/kg IV Q3D×3 + Radiation (10Gy) (Day 4)"}, "[4]": {"details": "Compound No. 14 + Radiation (10Gy) (Day 0)"}, "[5]": {"details": "Compound No. 14 + Radiation (10Gy) (Day 1)"}, "[6]": {"details": "Compound No. 14 + Radiation (10Gy) (Day 2)"}, "[7]": {"details": "Compound No. 14 + Radiation (10Gy) (Day 3)"}, "[8]": {"details": "Compound No. 14 + Radiation (10Gy) (Day 4)"}},
  "data": [
    {"smiles": "Nc1ncnc2c1ncn2[C@@H]1O[C@@H]2COP(=O)(S)O[C@@H]3[C@H](O)[C@@H](COP(=O)(S)O[C@H]2[C@H]1F)O[C@H]3n1cc(F)c2c(=O)[nH]cnc21", "note": "(stereo partly drawn) [Compound No. 14]", "values": [
      {"measurement": "GRI (%) Day 21", "setting": "Compound No. 14 1.0 mg/kg IV Q3D×3 (Days 2, 5, 8), single agent", "result": 20, "unit": "%"},
      {"measurement": "GRI (%) Day 21", "setting": "Compound No. 14 1.0 mg/kg IV Q3D×3 + Radiation (10Gy) (Day 0)", "result": 60, "unit": "%"},
      {"measurement": "GRI (%) Day 21", "setting": "Compound No. 14 1.0 mg/kg IV Q3D×3 + Radiation (10Gy) (Day 1)", "result": 62, "unit": "%"},
      {"measurement": "Complete Regressions", "setting": "[1]", "result": 2},
      {"measurement": "GRI (%) Day 21", "setting": "[1]", "result": 68, "unit": "%"},
      {"measurement": "Complete Regressions", "setting": "[2]", "result": 4},
      {"measurement": "GRI (%) Day 21", "setting": "[2]", "result": 64, "unit": "%"},
      {"measurement": "Complete Regressions", "setting": "[3]", "result": 2},
      {"measurement": "GRI (%) Day 21", "setting": "[3]", "result": 60, "unit": "%"},
      {"measurement": "Combination Assessment", "setting": "[4]", "result": "additive"},
      {"measurement": "Synergy Score %", "setting": "[4]", "result": "−20", "unit": "%"},
      {"measurement": "Combination Assessment", "setting": "Compound No. 14 + Radiation (10Gy) (Day 0), listed as Compound No.14", "result": "Additive"},
      {"measurement": "Combination Assessment", "setting": "[5]", "result": "Additive"},
      {"measurement": "Synergy Score %", "setting": "[5]", "result": "−22", "unit": "%"},
      {"measurement": "Combination Assessment", "setting": "[6]", "result": "synergistic"},
      {"measurement": "Synergy Score %", "setting": "[6]", "result": "−28", "unit": "%"},
      {"measurement": "Combination Assessment", "setting": "Compound No. 14 + Radiation (10Gy) (Day 2), listed as Compound No.14", "result": "Synergistic"},
      {"measurement": "Combination Assessment", "setting": "[7]", "result": "Additive"},
      {"measurement": "Synergy Score %", "setting": "[7]", "result": "−24", "unit": "%"},
      {"measurement": "Combination Assessment", "setting": "[8]", "result": "Additive"},
      {"measurement": "Synergy Score %", "setting": "[8]", "result": "−20", "unit": "%"}
    ]}
  ]
}
